Measurements published in ChEMBL document CHEMBL1201862, “PubChem BioAssay data set” (2004).
The source made the active and inactive calls.

What was measured:
Assay type in all cases: functional
[1] = target: Tyrosine-protein kinase JAK2 (Homo sapiens, UniProt O60674);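 also: JAK2 tested as one member of a kinase panel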
[2] = target: ALK tyrosine kinase receptor (Homo sapiens, UniProt Q9UM73);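 also: ALK tested as one member of a kinase panel screen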
[3] = target: T1, Serine/threonine-protein kinase D3 (Homo sapiens, UniProt O94806);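 also: determined within a kinase panel screen, with PRKCN as the panel member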
T1 sequence (O94806 whole entry): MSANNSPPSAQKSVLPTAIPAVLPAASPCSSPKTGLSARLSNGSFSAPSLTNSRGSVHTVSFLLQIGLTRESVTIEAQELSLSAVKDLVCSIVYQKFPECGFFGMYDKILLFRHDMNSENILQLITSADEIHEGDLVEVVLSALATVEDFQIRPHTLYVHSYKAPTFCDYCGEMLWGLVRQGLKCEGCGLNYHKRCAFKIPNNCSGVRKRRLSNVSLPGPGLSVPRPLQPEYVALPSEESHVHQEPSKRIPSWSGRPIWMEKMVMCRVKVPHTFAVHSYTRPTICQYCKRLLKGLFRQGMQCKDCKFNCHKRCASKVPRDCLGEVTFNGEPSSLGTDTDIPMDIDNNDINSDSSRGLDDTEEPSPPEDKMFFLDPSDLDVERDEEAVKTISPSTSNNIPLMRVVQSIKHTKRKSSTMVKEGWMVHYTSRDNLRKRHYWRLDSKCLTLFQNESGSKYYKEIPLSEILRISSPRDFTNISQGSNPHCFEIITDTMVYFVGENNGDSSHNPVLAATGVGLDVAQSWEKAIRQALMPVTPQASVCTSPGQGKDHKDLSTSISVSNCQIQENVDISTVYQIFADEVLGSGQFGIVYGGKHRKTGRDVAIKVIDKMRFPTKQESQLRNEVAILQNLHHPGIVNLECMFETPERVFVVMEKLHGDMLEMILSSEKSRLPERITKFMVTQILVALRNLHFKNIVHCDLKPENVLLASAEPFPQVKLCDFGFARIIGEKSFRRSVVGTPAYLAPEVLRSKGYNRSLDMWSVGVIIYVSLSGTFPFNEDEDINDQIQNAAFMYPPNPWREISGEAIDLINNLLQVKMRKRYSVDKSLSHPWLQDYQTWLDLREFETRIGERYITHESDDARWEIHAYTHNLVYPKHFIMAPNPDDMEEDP

[4] = target: Death-associated protein kinase 3 (Homo sapiens, UniProt O43293);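 also: measured as one member of a kinome-wide profiling panel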
[5] = target: T2, Serine/threonine-protein kinase TAO1 (Homo sapiens, UniProt Q7L7X3)
T2 sequence (Q7L7X3 whole entry): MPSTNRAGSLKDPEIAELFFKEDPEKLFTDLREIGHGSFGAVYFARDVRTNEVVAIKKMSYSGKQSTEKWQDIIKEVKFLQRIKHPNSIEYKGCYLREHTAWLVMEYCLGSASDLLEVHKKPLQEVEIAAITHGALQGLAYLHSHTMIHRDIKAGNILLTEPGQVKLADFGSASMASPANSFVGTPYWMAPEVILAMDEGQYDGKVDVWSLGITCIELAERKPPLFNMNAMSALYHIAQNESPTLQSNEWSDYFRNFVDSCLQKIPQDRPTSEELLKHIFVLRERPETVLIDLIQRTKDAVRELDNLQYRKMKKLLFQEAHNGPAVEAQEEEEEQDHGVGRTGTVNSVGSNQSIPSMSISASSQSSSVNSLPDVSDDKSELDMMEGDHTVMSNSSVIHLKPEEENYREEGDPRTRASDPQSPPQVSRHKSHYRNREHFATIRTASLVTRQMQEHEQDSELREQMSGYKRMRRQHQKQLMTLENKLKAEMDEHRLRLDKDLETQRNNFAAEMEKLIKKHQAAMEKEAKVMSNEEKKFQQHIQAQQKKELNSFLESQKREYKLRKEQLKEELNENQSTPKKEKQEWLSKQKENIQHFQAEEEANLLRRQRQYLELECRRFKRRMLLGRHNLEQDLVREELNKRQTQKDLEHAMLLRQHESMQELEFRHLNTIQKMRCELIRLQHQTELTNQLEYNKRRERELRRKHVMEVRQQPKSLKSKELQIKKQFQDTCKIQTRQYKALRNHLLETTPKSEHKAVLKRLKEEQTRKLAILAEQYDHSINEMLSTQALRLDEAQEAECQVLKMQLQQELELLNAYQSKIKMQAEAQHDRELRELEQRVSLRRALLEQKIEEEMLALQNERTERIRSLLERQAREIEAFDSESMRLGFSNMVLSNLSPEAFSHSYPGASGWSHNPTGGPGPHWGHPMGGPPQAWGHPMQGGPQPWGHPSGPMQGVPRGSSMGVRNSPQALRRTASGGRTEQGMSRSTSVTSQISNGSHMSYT

[6] = target: Glycogen synthase kinase-3 alpha (Homo sapiens, UniProt P49840);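 also: GSK3A result taken from a broad kinome-wide kinase panel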
Sequence of Glycogen synthase kinase-3 alpha (P49840 whole entry): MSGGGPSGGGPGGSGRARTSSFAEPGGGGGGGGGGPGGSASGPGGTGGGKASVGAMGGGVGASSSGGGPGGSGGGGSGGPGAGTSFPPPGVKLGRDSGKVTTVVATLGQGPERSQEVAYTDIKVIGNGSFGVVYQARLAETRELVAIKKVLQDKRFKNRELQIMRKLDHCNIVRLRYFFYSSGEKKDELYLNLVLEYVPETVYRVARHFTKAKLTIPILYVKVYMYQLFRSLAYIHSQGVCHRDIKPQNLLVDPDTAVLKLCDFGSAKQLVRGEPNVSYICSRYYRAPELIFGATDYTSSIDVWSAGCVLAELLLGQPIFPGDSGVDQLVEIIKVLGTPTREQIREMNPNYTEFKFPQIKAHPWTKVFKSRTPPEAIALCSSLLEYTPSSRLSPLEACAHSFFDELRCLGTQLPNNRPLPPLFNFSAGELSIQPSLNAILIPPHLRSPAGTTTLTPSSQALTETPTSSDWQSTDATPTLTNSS

[7] = target: G protein-coupled receptor kinase 5 (Homo sapiens, UniProt P34947); experiment: Navigating the Kinome. Panel member name: GPRK5
Sequence of G protein-coupled receptor kinase 5 (P34947 whole entry): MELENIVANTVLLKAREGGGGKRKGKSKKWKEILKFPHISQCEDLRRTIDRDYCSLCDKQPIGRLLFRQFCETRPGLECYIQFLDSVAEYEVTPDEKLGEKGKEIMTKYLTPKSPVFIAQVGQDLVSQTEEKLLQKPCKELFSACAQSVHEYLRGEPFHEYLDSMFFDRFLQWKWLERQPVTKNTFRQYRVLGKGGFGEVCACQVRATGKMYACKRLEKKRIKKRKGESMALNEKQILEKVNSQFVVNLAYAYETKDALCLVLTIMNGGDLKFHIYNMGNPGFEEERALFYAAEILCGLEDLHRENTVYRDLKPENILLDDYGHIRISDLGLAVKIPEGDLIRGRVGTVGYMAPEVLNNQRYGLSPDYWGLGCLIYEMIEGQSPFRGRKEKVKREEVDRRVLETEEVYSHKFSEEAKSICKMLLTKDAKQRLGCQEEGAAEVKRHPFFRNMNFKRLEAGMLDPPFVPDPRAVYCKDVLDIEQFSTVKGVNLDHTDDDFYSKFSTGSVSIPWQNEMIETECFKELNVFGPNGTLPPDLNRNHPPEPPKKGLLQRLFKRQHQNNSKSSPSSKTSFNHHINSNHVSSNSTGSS

[8] = target: Rho-associated protein kinase 1 (Homo sapiens, UniProt Q13464);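 also: measured within a broad kinome-wide panel profiling many kinases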
Sequence of Rho-associated protein kinase 1 (Q13464 whole entry): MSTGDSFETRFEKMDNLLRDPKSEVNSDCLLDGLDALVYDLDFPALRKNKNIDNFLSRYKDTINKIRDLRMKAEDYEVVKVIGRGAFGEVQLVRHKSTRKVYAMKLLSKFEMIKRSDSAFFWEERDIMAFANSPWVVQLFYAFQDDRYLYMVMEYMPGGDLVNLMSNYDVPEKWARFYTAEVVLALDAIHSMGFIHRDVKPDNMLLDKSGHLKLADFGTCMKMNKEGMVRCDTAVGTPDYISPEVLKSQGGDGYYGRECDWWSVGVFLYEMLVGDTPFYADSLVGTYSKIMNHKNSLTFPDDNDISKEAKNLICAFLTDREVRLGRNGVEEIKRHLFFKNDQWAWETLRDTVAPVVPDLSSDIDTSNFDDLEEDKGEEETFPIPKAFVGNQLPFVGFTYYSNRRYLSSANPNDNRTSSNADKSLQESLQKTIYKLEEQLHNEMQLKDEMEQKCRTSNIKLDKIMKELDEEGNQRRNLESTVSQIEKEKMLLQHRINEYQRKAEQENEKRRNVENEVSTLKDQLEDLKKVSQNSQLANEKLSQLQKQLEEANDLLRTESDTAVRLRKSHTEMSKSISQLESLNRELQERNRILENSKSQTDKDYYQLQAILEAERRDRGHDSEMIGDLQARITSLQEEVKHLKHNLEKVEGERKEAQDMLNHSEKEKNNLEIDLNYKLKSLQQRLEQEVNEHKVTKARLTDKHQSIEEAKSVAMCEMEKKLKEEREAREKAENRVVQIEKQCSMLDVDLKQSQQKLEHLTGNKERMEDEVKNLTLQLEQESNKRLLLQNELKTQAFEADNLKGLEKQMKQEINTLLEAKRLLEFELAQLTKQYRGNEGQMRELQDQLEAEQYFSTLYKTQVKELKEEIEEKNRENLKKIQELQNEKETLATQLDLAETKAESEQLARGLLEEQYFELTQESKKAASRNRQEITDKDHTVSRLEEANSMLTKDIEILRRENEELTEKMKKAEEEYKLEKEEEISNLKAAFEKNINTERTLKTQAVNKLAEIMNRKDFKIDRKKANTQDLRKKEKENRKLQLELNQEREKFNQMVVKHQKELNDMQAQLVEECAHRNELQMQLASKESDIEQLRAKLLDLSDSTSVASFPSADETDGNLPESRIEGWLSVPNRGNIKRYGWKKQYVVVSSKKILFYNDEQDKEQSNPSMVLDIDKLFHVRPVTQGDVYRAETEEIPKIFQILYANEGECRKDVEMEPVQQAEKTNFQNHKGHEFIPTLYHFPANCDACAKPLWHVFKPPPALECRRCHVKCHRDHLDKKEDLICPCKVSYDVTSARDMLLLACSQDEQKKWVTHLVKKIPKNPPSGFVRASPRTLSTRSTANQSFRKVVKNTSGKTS

[9] = target: Glycogen synthase kinase-3 beta (Homo sapiens, UniProt P49841);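 also: value comes from a broad kinome profiling panel, with GSK3B as the panel member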
[10] = target: Macrophage-stimulating protein receptor (Homo sapiens, UniProt Q04912); experiment: Navigating the Kinome. Panel member name: MST1R
Sequence of Macrophage-stimulating protein receptor (Q04912 25-304 limits assumed): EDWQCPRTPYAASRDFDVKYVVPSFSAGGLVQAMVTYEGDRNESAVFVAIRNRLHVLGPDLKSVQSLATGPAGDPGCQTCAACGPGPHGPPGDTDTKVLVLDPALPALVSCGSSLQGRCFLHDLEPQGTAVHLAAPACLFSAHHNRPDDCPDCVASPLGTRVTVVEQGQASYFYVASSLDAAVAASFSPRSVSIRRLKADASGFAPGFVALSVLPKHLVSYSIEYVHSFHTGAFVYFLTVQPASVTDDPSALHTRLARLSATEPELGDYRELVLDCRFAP
Sequence of Macrophage-stimulating protein receptor (Q04912 310-1400 limits assumed): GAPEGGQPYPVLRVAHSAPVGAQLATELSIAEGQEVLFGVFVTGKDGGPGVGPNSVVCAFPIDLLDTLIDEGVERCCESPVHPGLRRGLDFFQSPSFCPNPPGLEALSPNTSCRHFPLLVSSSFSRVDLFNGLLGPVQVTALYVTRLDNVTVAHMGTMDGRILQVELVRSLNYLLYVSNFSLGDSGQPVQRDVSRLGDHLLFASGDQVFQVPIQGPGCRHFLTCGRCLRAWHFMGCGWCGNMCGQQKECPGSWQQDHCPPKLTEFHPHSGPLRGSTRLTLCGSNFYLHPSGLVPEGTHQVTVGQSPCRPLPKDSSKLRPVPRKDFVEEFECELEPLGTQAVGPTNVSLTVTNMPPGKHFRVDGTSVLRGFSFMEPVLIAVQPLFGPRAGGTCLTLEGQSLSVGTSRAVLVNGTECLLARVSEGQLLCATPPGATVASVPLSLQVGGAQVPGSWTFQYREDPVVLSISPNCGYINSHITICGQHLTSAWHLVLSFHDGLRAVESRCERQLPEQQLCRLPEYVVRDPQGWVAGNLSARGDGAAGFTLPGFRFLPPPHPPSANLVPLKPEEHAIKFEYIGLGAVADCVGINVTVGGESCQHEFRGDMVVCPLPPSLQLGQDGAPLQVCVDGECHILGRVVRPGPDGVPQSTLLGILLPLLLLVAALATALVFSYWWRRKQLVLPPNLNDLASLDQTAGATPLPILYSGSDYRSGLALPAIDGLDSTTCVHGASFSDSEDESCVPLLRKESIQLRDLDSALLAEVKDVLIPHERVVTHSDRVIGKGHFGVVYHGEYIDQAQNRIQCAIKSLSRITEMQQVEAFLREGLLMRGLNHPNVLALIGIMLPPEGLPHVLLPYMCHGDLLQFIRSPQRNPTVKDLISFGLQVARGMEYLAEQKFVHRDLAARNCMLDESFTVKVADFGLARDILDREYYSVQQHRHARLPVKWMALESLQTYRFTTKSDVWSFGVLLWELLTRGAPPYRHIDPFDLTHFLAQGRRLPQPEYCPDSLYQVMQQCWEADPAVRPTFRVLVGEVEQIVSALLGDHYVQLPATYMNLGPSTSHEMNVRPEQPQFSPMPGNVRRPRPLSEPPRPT

[11] = target: Macrophage colony-stimulating factor 1 receptor (Homo sapiens, UniProt P07333);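 also: value comes from the Navigating the Kinome screening panel, CSF1R member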
Sequence of Macrophage colony-stimulating factor 1 receptor (P07333 whole entry): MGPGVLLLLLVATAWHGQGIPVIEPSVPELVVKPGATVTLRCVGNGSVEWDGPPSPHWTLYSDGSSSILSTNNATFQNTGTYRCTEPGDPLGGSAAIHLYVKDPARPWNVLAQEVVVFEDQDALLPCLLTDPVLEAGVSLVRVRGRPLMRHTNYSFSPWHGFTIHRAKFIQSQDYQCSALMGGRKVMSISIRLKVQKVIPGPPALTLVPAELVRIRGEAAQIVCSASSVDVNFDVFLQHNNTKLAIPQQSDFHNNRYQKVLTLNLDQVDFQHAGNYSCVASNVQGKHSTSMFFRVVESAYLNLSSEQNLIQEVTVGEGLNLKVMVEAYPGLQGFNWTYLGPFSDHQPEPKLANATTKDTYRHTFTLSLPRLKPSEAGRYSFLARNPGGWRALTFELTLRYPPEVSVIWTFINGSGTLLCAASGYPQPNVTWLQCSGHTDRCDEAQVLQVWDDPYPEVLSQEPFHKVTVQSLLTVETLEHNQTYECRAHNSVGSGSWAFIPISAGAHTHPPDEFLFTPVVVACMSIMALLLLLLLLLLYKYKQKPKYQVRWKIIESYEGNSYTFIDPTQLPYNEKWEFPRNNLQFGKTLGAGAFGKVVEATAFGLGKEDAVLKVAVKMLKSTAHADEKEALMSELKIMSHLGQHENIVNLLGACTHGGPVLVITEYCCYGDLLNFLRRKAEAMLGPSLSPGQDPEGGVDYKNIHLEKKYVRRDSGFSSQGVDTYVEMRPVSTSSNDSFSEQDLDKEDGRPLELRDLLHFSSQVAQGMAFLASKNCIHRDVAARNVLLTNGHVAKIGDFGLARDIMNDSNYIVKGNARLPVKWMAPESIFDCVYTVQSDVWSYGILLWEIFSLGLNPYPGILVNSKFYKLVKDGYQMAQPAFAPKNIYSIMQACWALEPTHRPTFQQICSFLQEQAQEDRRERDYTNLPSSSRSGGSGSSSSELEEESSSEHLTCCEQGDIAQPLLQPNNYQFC

[12] = target: Dual specificity tyrosine-phosphorylation-regulated kinase 1A (Homo sapiens, UniProt Q13627);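 also: measured against DYRK1A as one member of a broad kinome profiling panel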
[13] = target: Leukocyte tyrosine kinase receptor (Homo sapiens, UniProt P29376); experiment: Navigating the Kinome. Panel member name: LTK
[14] = target: Mitogen-activated protein kinase 14 (Homo sapiens, UniProt Q16539);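 also: part of a kinome-wide panel, MAPK14 entry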

Ki [1]	Ki [2]	Ki [3]	Ki [5]	Ki [6]	Ki [7]	Ki [8]	Ki [9]	Ki [10]	Ki [11]	Ki [12]	Ki [13]	Ki [14]	SMILES	Ki [4]	further results
200 nM (active)	> 1260 nM (inactive)	15.8 nM (active)	501 nM (active)	63.1 nM (active)	1580 nM (active)	7.94 nM (active)	50.1 nM (active)	100 nM (active)	200 nM (active)	> 2 nM (inactive)	251 nM (active)	> 3980 nM (inactive)	OC1CCC(Nc2nc(Cl)cc(-c3c[nH]c4ncccc34)n2)CC1 (centres undefined)	79.4 nM (active)	pKi [1]: 6.7; pKi [3]: 7.8; pKi [4]: 7.1; pKi [5]: 6.3; pKi [6]: 7.2; pKi [7]: 5.8; pKi [8]: 8.1; pKi [9]: 7.3; pKi [10]: 7; pKi [11]: 6.7; pKi [13]: 6.6
> 2510 nM (inactive)	> 6310 nM (inactive)	> 3980 nM (inactive)	> 6310 nM (inactive)	> 3980 nM (inactive)	3980 nM (active)	25.1 nM (active)	> 3980 nM (inactive)	> 3980 nM (inactive)	> 2510 nM (inactive)	> 2000 nM (inactive)	> 2510 nM (inactive)	> 3980 nM (inactive)	COc1cccc(CNC(=O)c2cnc(-c3ccncc3)nc2)c1	> 5010 nM (inactive)	–
